Test results reported in US6358885B1, “Substituted phenylheterocyclic herbicides” (Mississippi State University, priority 1992, dated 2002).

Experiments:
blackgrass = experiment: Test B preemergence/postemergence greenhouse plant response rating 0 to 10; assay type: in vivo, Alopecurus myosuroides; details: 0 to 10 scale
How it was run: (§1)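 Postemergence treatment of plants two to eighteen cm tall ran alongside preemergence treatment of planted seed, each using compound in a non-phytotoxic solvent.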

wild buckwheat = experiment: Test C preemergence/postemergence greenhouse plant response rating 0 to 100; assay type: in vivo, Polygonum convolvulus; details: POSTEMERGENCE
How it was run: (§2)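 Compounds in non-phytotoxic solvent went onto sandy loam before emergence (seeded one day earlier) or onto plants at the one-to-four leaf stage. Duck salad was treated via flood water (~2.5 cm, maintained) over silt loam.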

barnyardgrass = experiment: Test C flood test plant response rating 0 to 100; assay type: in vivo, Echinochloa crus-galli
How it was run: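 Compounds in non-phytotoxic solvent applied preemergence to sandy loam one day after planting, postemergence at the 1–4 leaf stage, or to ~2.5 cm floodwater over silt loam.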

wheat [1] = experiment: Test B preemergence/postemergence greenhouse plant response rating 0 to 10; assay type: in vivo, Triticum aestivum; details: 0 to 10 scale
How it was run: as §1

crabgrass = experiment: as above; assay type: in vivo, Digitaria spp.; details: 0 to 10 scale
How it was run: as §1

duck salad = experiment: Test C flood test plant response rating 0 to 100; assay type: in vivo, Heteranthera limosa
How it was run: as §2

sugar beet = experiment: Test B preemergence/postemergence greenhouse plant response rating 0 to 10; assay type: in vivo, Beta vulgaris; details: 0 to 10 scale
How it was run: as §1

velvetleaf = experiment: Test C preemergence/postemergence greenhouse plant response rating 0 to 100; assay type: in vivo, Abutilon theophrasti; details: POSTEMERGENCE
How it was run: as §2

cotton [2] = experiment: Test B preemergence/postemergence greenhouse plant response rating 0 to 10; assay type: in vivo, Gossypium hirsutum; details: 0 to 10 scale
How it was run: as §1

pigweed = experiment: Test C preemergence/postemergence greenhouse plant response rating 0 to 100; assay type: in vivo, Amaranthusretroflexus; details: POSTEMERGENCE
How it was run: as §2

wild oat = experiment: Test B preemergence/postemergence greenhouse plant response rating 0 to 10; assay type: in vivo, Avena fatua; details: 0 to 10 scale
How it was run: as §1

rice = experiment: as above; assay type: in vivo, Oryza sativa; details: 0 to 10 scale
How it was run: as §1

cotton [3] = experiment: Test C preemergence/postemergence greenhouse plant response rating 0 to 100; assay type: in vivo, Gossypium hirsutum; details: POSTEMERGENCE
How it was run: as §2

purple nutsedge = experiment: Test B preemergence/postemergence greenhouse plant response rating 0 to 10; assay type: in vivo, Cyperus rotundus; details: 0 to 10 scale
How it was run: as §1

wheat [4] = experiment: Test C preemergence/postemergence greenhouse plant response rating 0 to 100; assay type: in vivo, Triticum aestivum; details: POSTEMERGENCE
How it was run: as §2

lambsquarters = experiment: as above; assay type: in vivo, Chenopodium album; details: POSTEMERGENCE
How it was run: as §2

sorghum = experiment: Test B preemergence/postemergence greenhouse plant response rating 0 to 10; assay type: in vivo, Sorghum bicolor; details: 0 to 10 scale
How it was run: as §1

corn = experiment: as above; assay type: in vivo, Zea mays; details: 0 to 10 scale
How it was run: as §1

[5] = POSTEMERGENCE section, flood test, Rate 1 g/ha
[6] = POSTEMERGENCE section, flood test, Rate 4 g/ha
[7] = Rate 16 g/ha, under POSTEMERGENCE head (flood test species)
[8] = flood test species listed under POSTEMERGENCE, 62 g/ha, 0 to 100 scale

COCN1C(=O)COc2cc(F)c(-c3nn4c(c3Cl)CCCC4)cc21 [Compound 55]
3: Plant response rating, Blackgrass (blackgrass; PREEMERGENCE, Rate 10 g/ha) | Plant response rating, Crabgrass (crabgrass; POSTEMERGENCE, Rate 50 g/ha) | Plant response rating, Rice (rice; POSTEMERGENCE, Rate 10 g/ha) | Plant response rating, Sorghum (sorghum; POSTEMERGENCE, Rate 10 g/ha) | Plant response rating, Corn (corn; POSTEMERGENCE, Rate 10 g/ha)
30: Plant response rating (0 to 100), Wheat (wheat [4]; Rate 1 g/ha)
5: Plant response rating, Blackgrass (blackgrass; POSTEMERGENCE, Rate 10 g/ha) | Plant response rating, Corn (corn; POSTEMERGENCE, Rate 50 g/ha)
0: Plant response rating, Crabgrass (crabgrass; PREEMERGENCE, Rate 10 g/ha) | Plant response rating (0 to 100), Duck salad (duck salad; [5]) | Plant response rating (0 to 100), Duck salad (duck salad; [6]) | Plant response rating, Rice (rice; PREEMERGENCE, Rate 50 g/ha) | Plant response rating, Nutsedge (purple nutsedge; PREEMERGENCE, Rate 50 g/ha) | Plant response rating, Sorghum (sorghum; PREEMERGENCE, Rate 50 g/ha)
6: Plant response rating, Wheat (wheat [1]; POSTEMERGENCE, Rate 50 g/ha) | Plant response rating, Crabgrass (crabgrass; PREEMERGENCE, Rate 50 g/ha) | Plant response rating, Cotton (cotton [2]; PREEMERGENCE, Rate 10 g/ha) | Plant response rating, Wild oat (wild oat; POSTEMERGENCE, Rate 10 g/ha)
1: Plant response rating, Cotton (cotton [2]; PREEMERGENCE, Rate 50 g/ha) | Plant response rating, Corn (corn; PREEMERGENCE, Rate 50 g/ha)
8: Plant response rating, Wheat (wheat [1]; POSTEMERGENCE, Rate 10 g/ha)
50: Plant response rating Duck salad (duck salad; [8]) | Plant response rating (0 to 100), Wheat (wheat [4]; Rate 16 g/ha)
80: Plant response rating (0 to 100), Velvetleaf (velvetleaf; Rate 1 g/ha)
90: Plant response rating (0 to 100), Barnyardgrass 2 (barnyardgrass; [7]) | Plant response rating (0 to 100), Cotton (cotton [3]; Rate 1 g/ha)
9: Plant response rating, Wild oat (wild oat; PREEMERGENCE, Rate 50 g/ha)
10: Plant response rating (0 to 100), Barnyardgrass 2 (barnyardgrass; [5]) | Plant response rating (0 to 100), Duck salad (duck salad; [7]) | Plant response rating, Sugar beet (sugar beet; POSTEMERGENCE, Rate 10 g/ha) | Plant response rating, Sugar beet (sugar beet; POSTEMERGENCE, Rate 50 g/ha) | Plant response rating, Sugar beet (sugar beet; PREEMERGENCE, Rate 50 g/ha) | Plant response rating, Cotton (cotton [2]; POSTEMERGENCE, Rate 10 g/ha) | Plant response rating, Cotton (cotton [2]; POSTEMERGENCE, Rate 50 g/ha)
7: Plant response rating, Blackgrass (blackgrass; POSTEMERGENCE, Rate 50 g/ha) | Plant response rating, Blackgrass (blackgrass; PREEMERGENCE, Rate 50 g/ha) | Plant response rating, Wild oat (wild oat; POSTEMERGENCE, Rate 50 g/ha)
40: Plant response rating (0 to 100), Wheat (wheat [4]; Rate 4 g/ha)
2: Plant response rating, Crabgrass (crabgrass; POSTEMERGENCE, Rate 10 g/ha) | Plant response rating, Nutsedge (purple nutsedge; POSTEMERGENCE, Rate 10 g/ha) | Plant response rating, Nutsedge (purple nutsedge; POSTEMERGENCE, Rate 50 g/ha)
60: Plant response rating (0 to 100), Wild buckwheat (wild buckwheat; Rate 1 g/ha) | Plant response rating (0 to 100), Barnyardgrass 2 (barnyardgrass; [6]) | Plant response rating, Wheat (wheat [4]; 62 g/ha, 0 to 100 scale)
100: Plant response rating, Wild buckwheat (wild buckwheat; 62 g/ha, 0 to 100 scale) | Plant response rating (0 to 100), Wild buckwheat (wild buckwheat; Rate 4 g/ha) | Plant response rating (0 to 100), Wild buckwheat (wild buckwheat; Rate 16 g/ha) | Plant response rating Barnyardgrass 2 (barnyardgrass; [8]) | Plant response rating, Velvetleaf (velvetleaf; 62 g/ha, 0 to 100 scale) | Plant response rating (0 to 100), Velvetleaf (velvetleaf; Rate 4 g/ha) | Plant response rating (0 to 100), Velvetleaf (velvetleaf; Rate 16 g/ha) | Plant response rating Pigweed (pigweed; 62 g/ha, 0 to 100 scale) | Plant response rating (0 to 100), Pigweed (pigweed; Rate 1 g/ha) | Plant response rating (0 to 100), Pigweed (pigweed; Rate 4 g/ha) | Plant response rating (0 to 100), Pigweed (pigweed; Rate 16 g/ha) | Plant response rating, Cotton (cotton [3]; 62 g/ha, 0 to 100 scale) | Plant response rating (0 to 100), Cotton (cotton [3]; Rate 4 g/ha) | Plant response rating (0 to 100), Cotton (cotton [3]; Rate 16 g/ha) | Plant response rating Lambsquarters (lambsquarters; 62 g/ha, 0 to 100 scale) | Plant response rating (0 to 100), Lambsquarters (lambsquarters; Rate 1 g/ha) | Plant response rating (0 to 100), Lambsquarters (lambsquarters; Rate 4 g/ha) | Plant response rating (0 to 100), Lambsquarters (lambsquarters; Rate 16 g/ha)
4: Plant response rating, Wheat (wheat [1]; PREEMERGENCE, Rate 50 g/ha) | Plant response rating, Rice (rice; POSTEMERGENCE, Rate 50 g/ha) | Plant response rating, Sorghum (sorghum; POSTEMERGENCE, Rate 50 g/ha)
